Measured values published in ChEMBL document CHEMBL5244273, “Tuberculosis: An Overview of the Immunogenic Response, Disease Progression, and Medicinal Chemistry Efforts in the Last Decade toward the Development of Potential Drugs for Extensively Drug-Resistant Tuberculosis Strains” (J Med Chem, 2021).
In brackets after ≈: the same amount, converted by molar mass.

tested on: Mycobacterium tuberculosis; experiment: Antimycobacterial activity against Mycobacterium tuberculosis H37Rv assessed as inhibition of bacterial growth by resazurin dye based fluorescence analysis; type: functional

SMILES | MIC
O=S(=O)(NCCO)c1ccc(-c2nnn(Cc3ccc(F)cn3)n2)cc1 | 0.1 µM (≈ 0.0378 µg/mL)
COc1ccc(Cn2cc(-c3ccc(S(=O)(=O)NCCO)cc3)nn2)cc1 | 0.1 µM (≈ 0.0388 µg/mL)
NC(=O)CNS(=O)(=O)c1ccc(-c2cn(Cc3ccc(F)cc3)nn2)cc1 | 0.1 µM (≈ 0.0389 µg/mL)
Cc1cc(Cn2nnc(-c3ccc(S(=O)(=O)NCC(N)=O)cc3)n2)ccn1 | 0.1 µM (≈ 0.0387 µg/mL)
COc1cc(-c2nnn(Cc3ccc(C#N)cn3)n2)ccc1S(=O)(=O)NCCO | 0.1 µM (≈ 0.0415 µg/mL)
NC(=O)CNS(=O)(=O)c1ccc(-c2cn(CC3CCC(F)(F)CC3)nn2)cc1 | 0.1 µM (≈ 0.0413 µg/mL)
O=S(=O)(NCCO)c1ccc(-c2nnn(Cc3ccc(F)cn3)n2)cc1F | 0.1 µM (≈ 0.0396 µg/mL)
C[C@@H](O)CNS(=O)(=O)c1ccc(-c2nnn(Cc3ccc(F)cn3)n2)cc1 | 0.1 µM (≈ 0.0392 µg/mL)
O=S(=O)(NCCO)c1ccc(-c2cn(Cc3ccc(F)cn3)nn2)cc1 | 0.1 µM (≈ 0.0377 µg/mL)
N#CCNS(=O)(=O)c1ccc(-c2nnn(Cc3ccncn3)n2)cc1 | 0.1 µM (≈ 0.0356 µg/mL)
O=S(=O)(NCCO)c1ccc(-c2nnn(CC3CCCCO3)n2)cc1F (stereo not given) | 0.1 µM (≈ 0.0385 µg/mL)
O=S(=O)(NCCO)c1ccc(-c2nnn(CC3CCCCO3)n2)c(F)c1F (stereo not given) | 0.1 µM (≈ 0.0403 µg/mL)
NC(=O)CNS(=O)(=O)c1ccc(-c2nnn(Cc3ccc(Cl)cn3)n2)cc1 | 0.1 µM (≈ 0.0408 µg/mL)
O=S(=O)(NCC(O)CO)c1ccc(-c2nnn(Cc3ccc(F)cc3)n2)cc1 (stereo not given) | 0.1 µM (≈ 0.0407 µg/mL)
NC(=O)CNS(=O)(=O)c1ccc(-c2nnn(CC3CCC(F)(F)CC3)n2)cc1 | 0.1 µM (≈ 0.0414 µg/mL)
C[C@@H](O)CNS(=O)(=O)c1ccc(-c2cn(Cc3ccc(F)cc3)nn2)cc1 | 0.1 µM (≈ 0.039 µg/mL)
COc1cnc(Cn2nnc(-c3ccc(S(=O)(=O)NCC#N)cc3)n2)cn1 | 0.1 µM (≈ 0.0386 µg/mL)
O=S(=O)(NCCO)c1ccc(-c2nnn(CC3CCCCO3)n2)cc1 (stereo not given) | 0.1 µM (≈ 0.0367 µg/mL)
O=S(=O)(NCCO)c1c(F)cc(-c2nnn(Cc3ccc(F)cn3)n2)cc1F | 0.1 µM (≈ 0.0414 µg/mL)
O=S(=O)(NCCO)c1ccc(-c2nnn(CC3CCOCC3)n2)cc1F | 0.1 µM (≈ 0.0385 µg/mL)
Cc1ccc(Cn2nnc(-c3ccc(S(=O)(=O)NCCO)cc3)n2)cn1 | 0.1 µM (≈ 0.0374 µg/mL)
COc1cc(-c2nnn(Cc3ccncc3)n2)ccc1S(=O)(=O)NCCO | 0.1 µM (≈ 0.039 µg/mL)
N#CCNS(=O)(=O)c1ccc(-c2nnn(Cc3ccncc3)n2)cc1 | 0.1 µM (≈ 0.0355 µg/mL)
COc1ccc(Cn2nnc(-c3ccc(S(=O)(=O)NC[C@@H](C)O)cc3)n2)cc1 | 0.1 µM (≈ 0.0403 µg/mL)

SMILES | MIC
O=S(=O)(NC(CO)CO)c1ccc(-c2nnn(Cc3ccc(F)cc3)n2)cc1 | 0.1 µM (≈ 0.0407 µg/mL)
COc1cc(-c2nnn(Cc3ccncc3)n2)ccc1S(=O)(=O)NCC(N)=O | 0.1 µM (≈ 0.0403 µg/mL)
COc1ccc(Cn2nnc(-c3ccc(S(=O)(=O)NC[C@@H](C)O)cc3)n2)nc1 | 0.1 µM (≈ 0.0404 µg/mL)
Cc1ccc(Cn2nnc(-c3ccc(S(=O)(=O)NCC(N)=O)cc3)n2)nc1 | 0.1 µM (≈ 0.0387 µg/mL)
O=S(=O)(NCCO)c1ccc(-c2cn(Cc3ccc(F)cc3)nn2)cc1 | 0.1 µM (≈ 0.0376 µg/mL)
COc1ccc(Cn2nnc(-c3ccc(S(=O)(=O)NCC#N)cc3)n2)cn1 | 0.1 µM (≈ 0.0385 µg/mL)
O=S(=O)(NCCO)c1ccc(-c2nnn(Cc3ccc(F)cn3)n2)cc1Cl | 0.1 µM (≈ 0.0413 µg/mL)
C[C@@H](O)CNS(=O)(=O)c1ccc(-c2nnn(Cc3ccc(F)cc3)n2)cc1 | 0.1 µM (≈ 0.0391 µg/mL)
O=S(=O)(NCCO)c1ccc(-c2nnn(Cc3ccc(F)cc3)n2)cc1F | 0.1 µM (≈ 0.0395 µg/mL)
N#Cc1ccc(Cn2nnc(-c3ccc(S(=O)(=O)NCCO)cc3)n2)cc1 | 0.1 µM (≈ 0.0384 µg/mL)
NC(=O)CNS(=O)(=O)c1ccc(-c2nnn(Cc3ccncc3)n2)cc1 | 0.1 µM (≈ 0.0373 µg/mL)
O=S(=O)(NCCO)c1ccc(-c2nnn(CC3CCCCC3)n2)cc1 | 0.1 µM (≈ 0.0365 µg/mL)
CCc1ccc(Cn2nnc(-c3ccc(S(=O)(=O)NCCO)cc3)n2)cc1 | 0.1 µM (≈ 0.0387 µg/mL)
O=S(=O)(NCCO)c1ccc(-c2nnn(Cc3ccc(OC(F)(F)F)cc3)n2)cc1 | 0.1 µM (≈ 0.0443 µg/mL)
N#CCNS(=O)(=O)c1ccc(-c2cn(Cc3ccc(F)cn3)nn2)cc1 | 0.1 µM (≈ 0.0372 µg/mL)
NC(=O)CNS(=O)(=O)c1ccc(-c2nnn(Cc3ccc(F)cn3)n2)cc1 | 0.1 µM (≈ 0.0391 µg/mL)
N#Cc1ccc(Cn2nnc(-c3ccc(S(=O)(=O)NCCO)cc3)n2)nc1 | 0.1 µM (≈ 0.0385 µg/mL)
COC(=O)CNS(=O)(=O)c1ccc(-c2nnn(Cc3ccncc3)n2)cc1 | 0.1 µM (≈ 0.0388 µg/mL)
Cc1cc(S(=O)(=O)NCCO)ccc1-c1nnn(CC2CCCCO2)n1 (stereo not given) | 0.1 µM (≈ 0.0381 µg/mL)
COc1cc(-c2nnn(Cc3ccc(F)cc3)n2)ccc1S(=O)(=O)NCCO | 0.1 µM (≈ 0.0407 µg/mL)
O=S(=O)(NCCO)c1ccc(-c2nnn(Cc3ccncc3)n2)cc1 | 0.1 µM (≈ 0.036 µg/mL)
O=S(=O)(NCCO)c1c(F)cc(-c2nnn(CC3CCCCO3)n2)cc1F (stereo not given) | 0.1 µM (≈ 0.0403 µg/mL)
COc1cc(-c2nnn(Cc3ccc(C#N)cc3)n2)ccc1S(=O)(=O)NCC(N)=O | 0.1 µM (≈ 0.0427 µg/mL)
O=S(=O)(NCCO)c1ccc(-c2nnn(CC3CCC(F)(F)CC3)n2)cc1 | 0.1 µM (≈ 0.0401 µg/mL)

SMILES | MIC
CNS(=O)(=O)c1ccc(-c2nnn(Cc3ccncc3)n2)cc1OC | 0.1 µM (≈ 0.036 µg/mL)
O=S(=O)(NCCO)c1ccc(-c2nnn(Cc3ccc(F)cn3)n2)c(F)c1F | 0.1 µM (≈ 0.0414 µg/mL)
C[C@@H](O)CNS(=O)(=O)c1ccc(-c2nnn(Cc3ccncc3)n2)cc1 | 0.1 µM (≈ 0.0374 µg/mL)
COC(=O)CNS(=O)(=O)c1ccc(-c2nnn(Cc3ccc(F)cc3)n2)cc1 | 0.1 µM (≈ 0.0405 µg/mL)
Cc1ccc(Cn2nnc(-c3ccc(S(=O)(=O)NC[C@@H](C)O)cc3)n2)nc1 | 0.1 µM (≈ 0.0388 µg/mL)
N#CCNS(=O)(=O)c1ccc(-c2nnn(CC3CCCCO3)n2)cc1 (stereo not given) | 0.1 µM (≈ 0.0362 µg/mL)
NC(=O)CNS(=O)(=O)c1ccc(-c2nnn(Cc3ccc(F)cc3)n2)cc1Cl | 0.1 µM (≈ 0.0425 µg/mL)
NC(=O)CNS(=O)(=O)c1ccc(-c2nnn(Cc3ccc(F)cc3)n2)cc1 | 0.1 µM (≈ 0.039 µg/mL)
CCOc1ccc(Cn2nnc(-c3ccc(S(=O)(=O)NCCO)cc3)n2)cc1 | 0.1 µM (≈ 0.0403 µg/mL)
O=S(=O)(NCCO)c1ccc(-c2nnn(Cc3ccc(C(F)(F)F)cc3)n2)cc1 | 0.1 µM (≈ 0.0427 µg/mL)
N#CCNS(=O)(=O)c1ccc(-c2nnn(Cc3cnccn3)n2)cc1 | 0.1 µM (≈ 0.0356 µg/mL)
O=S(=O)(NC(CO)CO)c1ccc(-c2nnn(Cc3ccncc3)n2)cc1 | 0.1 µM (≈ 0.039 µg/mL)
N#CCNS(=O)(=O)c1ccc(-c2cn(Cc3ccncc3)nn2)cc1 | 0.1 µM (≈ 0.0354 µg/mL)
O=S(=O)(NCCO)c1ccc(-c2cn(Cc3ccncc3)nn2)cc1 | 0.1 µM (≈ 0.0359 µg/mL)
COc1cc(-c2nnn(Cc3ccc(F)cc3)n2)ccc1S(=O)(=O)NCC(N)=O | 0.1 µM (≈ 0.042 µg/mL)
O=S(=O)(NCCO)c1ccc(-c2nnn(Cc3ccc(F)cn3)n2)c(F)c1 | 0.1 µM (≈ 0.0396 µg/mL)
Cc1nccc(Cn2nnc(-c3ccc(S(=O)(=O)NCCO)cc3)n2)n1 | 0.1 µM (≈ 0.0375 µg/mL)
COc1cc(-c2nnn(CC3CCC(F)(F)CC3)n2)ccc1S(=O)(=O)NCC(N)=O | 0.1 µM (≈ 0.0444 µg/mL)
NC(=O)CNS(=O)(=O)c1ccc(-c2nnn(Cc3ccc(F)c(F)c3)n2)cc1 | 0.1 µM (≈ 0.0408 µg/mL)
Cc1cc(S(=O)(=O)NCCO)ccc1-c1nnn(Cc2ccc(F)cn2)n1 | 0.1 µM (≈ 0.0392 µg/mL)
O=S(=O)(NCCO)c1ccc(-c2nnn(Cc3ccc(C(F)F)cc3)n2)cc1 | 0.1 µM (≈ 0.0409 µg/mL)
Cc1ccc(Cn2nnc(-c3ccc(S(=O)(=O)NCCO)cc3)n2)nc1 | 0.1 µM (≈ 0.0374 µg/mL)
COc1ccc(Cn2nnc(-c3ccc(S(=O)(=O)NCC(N)=O)cc3)n2)cc1 | 0.1 µM (≈ 0.0402 µg/mL)
Cc1cc(Cn2nnc(-c3ccc(S(=O)(=O)NCCO)cc3)n2)ccn1 | 0.1 µM (≈ 0.0374 µg/mL)

SMILES | MIC
Cc1cc(-c2nnn(CC3CCCCO3)n2)ccc1S(=O)(=O)NCCO (stereo not given) | 0.1 µM (≈ 0.0381 µg/mL)
Cc1ccc(Cn2nnc(-c3ccc(S(=O)(=O)NCC(N)=O)cc3)n2)cc1 | 0.1 µM (≈ 0.0386 µg/mL)
COc1ccc(Cn2nnc(-c3ccc(S(=O)(=O)NCCO)cc3)n2)nc1 | 0.1 µM (≈ 0.039 µg/mL)
Cc1ccc(Cn2cc(-c3ccc(S(=O)(=O)NCCO)cc3)nn2)nc1 | 0.1 µM (≈ 0.0373 µg/mL)
C[C@H](O)CNS(=O)(=O)c1ccc(-c2nnn(Cc3ccc(F)cc3)n2)cc1 | 0.1 µM (≈ 0.0391 µg/mL)
N#CNS(=O)(=O)c1ccc(-c2nnn(Cc3ccc(F)cn3)n2)cc1 | 0.1 µM (≈ 0.0359 µg/mL)
O=S(=O)(NCCO)c1ccc(-c2nnn(Cc3ncc(F)cc3F)n2)cc1 | 0.1 µM (≈ 0.0396 µg/mL)
O=S(=O)(NCCO)c1ccc(-c2nnn(CC3CCCCO3)n2)c(F)c1 (stereo not given) | 0.1 µM (≈ 0.0385 µg/mL)
COc1cc(-c2nnn(Cc3ccncc3)n2)ccc1S(=O)(=O)NCC#N | 0.1 µM (≈ 0.0385 µg/mL)
N#CCNS(=O)(=O)c1ccc(-c2nnn(Cc3ccc(F)cc3)n2)cc1 | 0.1 µM (≈ 0.0372 µg/mL)
Cc1cccc(Cn2nnc(-c3ccc(S(=O)(=O)NCCO)cc3)n2)n1 | 0.1 µM (≈ 0.0374 µg/mL)
N#Cc1ccc(Cn2cc(-c3ccc(S(=O)(=O)NCCO)cc3)nn2)cc1 | 0.1 µM (≈ 0.0383 µg/mL)
N#CCNS(=O)(=O)c1ccc(-c2nnn(CC3CCOCC3)n2)cc1 | 0.1 µM (≈ 0.0362 µg/mL)
O=S(=O)(NCCO)c1ccc(-c2nnn(Cc3ccc(F)cn3)n2)c(Cl)c1 | 0.1 µM (≈ 0.0413 µg/mL)
O=S(=O)(NCCO)c1ccc(-c2nnn(Cc3ccc(Cl)cc3)n2)cc1 | 0.1 µM (≈ 0.0394 µg/mL)
Cc1cnc(Cn2nnc(-c3ccc(S(=O)(=O)NCC#N)cc3)n2)cn1 | 0.1 µM (≈ 0.037 µg/mL)
NC(=O)CNS(=O)(=O)c1ccc(-c2nnn(CC3CCCCO3)n2)cc1 (stereo not given) | 0.1 µM (≈ 0.038 µg/mL)
COc1ccc(Cn2nnc(-c3ccc(S(=O)(=O)NCCO)cc3)n2)cc1F | 0.1 µM (≈ 0.0407 µg/mL)
O=S(=O)(NCCO)c1ccc(-c2nnn(Cc3ccc(Cl)cn3)n2)cc1 | 0.1 µM (≈ 0.0395 µg/mL)
C[C@@H](O)CNS(=O)(=O)c1ccc(-c2nnn(CC3CCC(F)(F)CC3)n2)cc1 | 0.1 µM (≈ 0.0415 µg/mL)
COc1cc(-c2nnn(Cc3ccc(F)cn3)n2)ccc1S(=O)(=O)NCCO | 0.1 µM (≈ 0.0408 µg/mL)
O=S(=O)(NCCO)c1ccc(-c2nnn(CC3CCCCC3)n2)cc1F | 0.1 µM (≈ 0.0383 µg/mL)
Cc1cc(-c2nnn(Cc3ccc(F)cn3)n2)ccc1S(=O)(=O)NCCO | 0.1 µM (≈ 0.0392 µg/mL)
